Measured values as given in US8906925B2, “Pyrido[4,3-B]indoles containing rigid moieties” (Medivation Technologies, Inc., priority 2008, dated 2014).

Columns and labels:
histamine receptor H1 = histamine receptor H1 (Homo sapiens, UniProt P35367); assay: Histamine H1 radioligand binding ([3H]Pyrilamine); conditions: read-out: Histamine Binding (1 μM) H1, percent inhibition of specific binding, 1 μM
Procedure, shortened: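 Values are percent inhibition of specific [3H]pyrilamine (1.2 nM) binding with compounds at ≤1 μM (1% DMSO vehicle); 180 min incubation at 25 °C, pH 7.4 Tris buffer, on CHO-expressed human H1 receptor; 1 μM pyrilamine defined nonspecific binding, bound ligand counted after filtration.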

[1] = biological target: T1, human recombinant serotonin (5-Hydroxytryptamine) 5-HT2C receptor (Homo sapiens, UniProt P28335); assay: Serotonin 5-HT2C radioligand binding ([3H]Mesulergine); conditions: for inhibition at 1 µM: compound at 1 μM; for inhibition at 1 µM / inhibition at 0.1 µM: read-out: Inhibition of ligand binding, Serotonin 5-HT2C (percent inhibition of specific binding)
T1 construct: expressed in transfected cells; host or cells: Chinese hamster ovary (CHO-K1) cells
T1 sequence (P28335 33-458): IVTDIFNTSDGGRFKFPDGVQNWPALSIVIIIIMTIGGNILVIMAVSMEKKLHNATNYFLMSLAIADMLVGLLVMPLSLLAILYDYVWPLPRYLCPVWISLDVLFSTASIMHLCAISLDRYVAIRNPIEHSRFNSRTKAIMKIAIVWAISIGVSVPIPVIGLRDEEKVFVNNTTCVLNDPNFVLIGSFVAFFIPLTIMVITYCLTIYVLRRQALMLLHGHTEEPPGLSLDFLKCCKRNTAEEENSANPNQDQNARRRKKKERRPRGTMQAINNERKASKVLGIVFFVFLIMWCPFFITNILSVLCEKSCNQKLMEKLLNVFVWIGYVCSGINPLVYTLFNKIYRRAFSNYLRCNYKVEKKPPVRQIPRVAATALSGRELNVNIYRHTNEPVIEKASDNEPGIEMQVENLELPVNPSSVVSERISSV
Experimental: Compounds of the invention were incubated with 1 nM [^3H]Mesulergine for 60 min. at 25° C. Non-specific binding was estimated in the presence of 1 μM Mianserin. Receptor proteins were filtered and washed, the filters were then counted to determine [^3H]Mesulergine specifically bound. Compounds were screened at 1 μM or lower, using 1% DMSO as vehicle. Biochemical assay results are presented as the percent inhibition of specific binding in Table 10.

[2] = biological target: T2, human recombinant serotonin (5-Hydroxytryptamine) 5-HT2A receptor (Homo sapiens, UniProt P28223); assay: Serotonin 5-HT2A radioligand binding ([3H]Ketanserin); conditions: for inhibition at 1 µM: read-out: Inhibition of ligand binding, Serotonin 5-HT2A (percent inhibition of specific binding), compound at 1 μM; for inhibition at 0.1 µM: read-out: Inhibition of ligand binding, Serotonin 5-HT2A (percent inhibition of specific binding), compound at 0.1 μM
T2 construct: expressed in transfected cells; host or cells: Chinese hamster ovary (CHO-K1) cells
Experimental: Compounds of the invention were incubated with 0.5 nM [^3H]Ketanserin for 60 min. at 25° C. Non-specific binding was estimated in the presence of 1 μM Mianserin. Receptor proteins were filtered and washed, the filters were then counted to determine [^3H]Ketanserin specifically bound.

[3] = biological target: human recombinant serotonin (5-Hydroxytryptamine) 5-HT7 receptor (Homo sapiens, UniProt P34969); assay: Serotonin 5-HT7 radioligand binding ([3H]LSD); conditions: for inhibition at 1 µM: compound at 1 μM; for inhibition at 1 µM / inhibition at 0.1 µM: read-out: Inhibition of ligand binding, Serotonin 5-HT7 (percent inhibition of specific binding)
From the text: Receptor proteins were filtered and washed, the filters were then counted to determine [^3H]LSD specifically bound.

[4] = biological target: T3, human recombinant serotonin (5-Hydroxytryptamine) 5-HT6 receptor (Homo sapiens, UniProt P50406); assay: Serotonin 5-HT6 radioligand binding ([3H]LSD); conditions: for inhibition at 1 µM: compound at 1 μM; for inhibition at 1 µM / inhibition at 0.1 µM: read-out: Inhibition of ligand binding, Serotonin 5-HT6 (percent inhibition of specific binding)
T3 construct: expressed in transfected cells; host or cells: human HeLa cells
Experimental: Compounds of the invention were incubated with 1.5 nM [3H]Lysergic acid diethylamide (LSD) for 120 min. at 37° C. […] Receptor proteins were filtered and washed, the filters were then counted to determine [3H]LSD specifically bound. Compounds were screened at 1 μM or lower, using 1% DMSO as vehicle. Biochemical assay results are presented as the percent inhibition of specific binding in Table 10.

[5] = biological target: T4, human recombinant histamine H2 receptor (Homo sapiens, UniProt P25021); assay: Histamine H2 radioligand binding ([125I]Aminopotentidine); conditions: read-out: Histamine Binding (1 μM) H2, percent inhibition of specific binding, 1 μM
T4 construct: expressed in transfected cells; host or cells: Chinese hamster ovary (CHO) K1 cells
Experimental: To evaluate in radioligand binding assays the activity of compounds of the invention, human recombinant histamine H2 receptor expressed in Chinese hamster ovary (CHO) K1 cells (Ruat, M., Proc. Natl. Acad. Sci. USA. 87(5):1658, 1990) in a 50 mM Phosphate buffer, pH 7.4 was used. Compounds of the invention were incubated with 0.1 nM [^125I]Aminopotentidine for 120 min. at 25° C. Non-specific binding was estimated in the presence of 3 μM Tiotidine. Receptor proteins were filtered and washed, the filters were then counted to determine [^125I]Aminopotentidine specifically bound.

[6] = biological target: human dopamine D2L receptor (Homo sapiens, UniProt P14416); assay: Dopamine D2L radioligand binding ([3H]Spiperone); conditions: percent inhibition of specific binding, compound at 1 μM; for inhibition at 1 µM: read-out: Inhibition of ligand binding, Dopamine D2L
From the text: Non-specific binding was estimated in the presence of […] Haloperidol. Receptor proteins were filtered and washed, the filters were then counted to determine [^3H]Spiperone specifically bound. […] Biochemical assay results are presented as the percent inhibition of specific binding in Table 9.

Chain of human dopamine D2L receptor (P14416 whole entry): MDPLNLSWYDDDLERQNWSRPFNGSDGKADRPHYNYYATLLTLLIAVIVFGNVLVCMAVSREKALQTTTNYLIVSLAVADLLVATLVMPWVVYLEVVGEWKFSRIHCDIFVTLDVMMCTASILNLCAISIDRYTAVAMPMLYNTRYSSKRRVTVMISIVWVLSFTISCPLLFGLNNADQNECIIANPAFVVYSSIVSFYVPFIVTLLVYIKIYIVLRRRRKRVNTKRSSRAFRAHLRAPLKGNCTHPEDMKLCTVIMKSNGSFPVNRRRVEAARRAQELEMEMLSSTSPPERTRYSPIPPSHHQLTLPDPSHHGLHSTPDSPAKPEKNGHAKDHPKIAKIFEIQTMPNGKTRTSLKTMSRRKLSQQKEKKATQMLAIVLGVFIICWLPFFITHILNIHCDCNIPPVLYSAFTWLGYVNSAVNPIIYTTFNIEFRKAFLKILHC
T2 sequence (P28223 whole entry): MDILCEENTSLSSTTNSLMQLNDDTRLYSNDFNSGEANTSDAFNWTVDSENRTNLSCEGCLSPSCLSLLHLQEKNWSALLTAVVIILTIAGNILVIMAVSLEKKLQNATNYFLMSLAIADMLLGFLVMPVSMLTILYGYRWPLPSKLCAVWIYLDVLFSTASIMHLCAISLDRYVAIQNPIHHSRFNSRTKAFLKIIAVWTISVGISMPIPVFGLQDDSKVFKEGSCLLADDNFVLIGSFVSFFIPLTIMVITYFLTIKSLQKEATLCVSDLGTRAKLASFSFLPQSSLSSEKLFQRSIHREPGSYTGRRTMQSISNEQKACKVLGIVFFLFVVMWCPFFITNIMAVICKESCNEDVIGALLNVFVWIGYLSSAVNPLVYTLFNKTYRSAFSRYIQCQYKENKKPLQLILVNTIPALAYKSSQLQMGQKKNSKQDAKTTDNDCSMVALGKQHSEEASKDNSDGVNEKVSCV
Chain of human recombinant serotonin (5-Hydroxytryptamine) 5-HT7 receptor (P34969 whole entry): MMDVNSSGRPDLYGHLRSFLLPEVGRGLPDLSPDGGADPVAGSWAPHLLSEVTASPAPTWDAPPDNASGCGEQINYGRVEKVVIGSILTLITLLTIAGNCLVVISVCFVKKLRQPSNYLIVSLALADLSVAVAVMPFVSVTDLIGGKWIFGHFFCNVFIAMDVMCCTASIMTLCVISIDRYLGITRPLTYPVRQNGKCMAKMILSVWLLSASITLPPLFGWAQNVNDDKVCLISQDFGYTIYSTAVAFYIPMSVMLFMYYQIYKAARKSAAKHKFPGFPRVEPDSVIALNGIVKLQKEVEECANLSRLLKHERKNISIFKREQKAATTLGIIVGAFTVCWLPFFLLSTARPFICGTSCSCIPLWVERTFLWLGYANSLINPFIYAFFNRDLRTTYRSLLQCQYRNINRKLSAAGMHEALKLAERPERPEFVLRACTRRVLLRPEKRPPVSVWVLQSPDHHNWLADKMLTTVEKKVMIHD
T3 sequence (P50406 whole entry): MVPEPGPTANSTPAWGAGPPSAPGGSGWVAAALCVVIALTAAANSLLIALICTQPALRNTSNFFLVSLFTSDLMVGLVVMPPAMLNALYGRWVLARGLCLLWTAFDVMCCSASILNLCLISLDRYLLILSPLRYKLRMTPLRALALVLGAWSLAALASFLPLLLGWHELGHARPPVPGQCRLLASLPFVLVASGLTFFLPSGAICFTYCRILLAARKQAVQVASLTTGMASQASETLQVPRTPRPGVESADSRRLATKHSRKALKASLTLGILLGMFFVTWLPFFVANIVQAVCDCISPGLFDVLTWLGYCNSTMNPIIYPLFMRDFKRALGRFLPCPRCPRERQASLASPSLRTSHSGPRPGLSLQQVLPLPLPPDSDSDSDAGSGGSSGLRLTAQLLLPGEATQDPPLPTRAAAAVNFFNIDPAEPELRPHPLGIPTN
Chain of histamine receptor H1 (P35367 whole entry): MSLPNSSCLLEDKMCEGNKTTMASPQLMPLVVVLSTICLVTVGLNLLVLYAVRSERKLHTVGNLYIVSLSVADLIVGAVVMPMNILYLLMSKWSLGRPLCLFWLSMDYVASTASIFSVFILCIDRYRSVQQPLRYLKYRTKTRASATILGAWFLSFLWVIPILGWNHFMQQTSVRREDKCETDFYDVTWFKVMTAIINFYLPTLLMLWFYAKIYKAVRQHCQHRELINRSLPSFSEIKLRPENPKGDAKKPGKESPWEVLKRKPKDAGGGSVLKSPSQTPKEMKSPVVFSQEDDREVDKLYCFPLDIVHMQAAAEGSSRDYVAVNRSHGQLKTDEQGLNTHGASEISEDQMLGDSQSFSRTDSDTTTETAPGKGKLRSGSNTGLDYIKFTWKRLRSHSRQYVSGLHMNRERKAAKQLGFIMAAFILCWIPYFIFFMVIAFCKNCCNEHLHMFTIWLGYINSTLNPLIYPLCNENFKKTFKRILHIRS
T4 sequence (P25021 whole entry): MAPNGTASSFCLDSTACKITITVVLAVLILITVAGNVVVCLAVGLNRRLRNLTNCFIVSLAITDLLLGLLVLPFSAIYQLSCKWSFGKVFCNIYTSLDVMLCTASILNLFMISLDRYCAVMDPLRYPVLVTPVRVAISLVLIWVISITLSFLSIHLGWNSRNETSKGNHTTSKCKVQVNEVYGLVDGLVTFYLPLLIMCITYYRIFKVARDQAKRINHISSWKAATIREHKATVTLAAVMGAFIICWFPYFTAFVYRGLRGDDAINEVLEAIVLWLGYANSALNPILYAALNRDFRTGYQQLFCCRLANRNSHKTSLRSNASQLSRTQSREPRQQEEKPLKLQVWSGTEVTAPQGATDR

| SMILES | inhibition at 1 µM (histamine receptor H1) [%] | inhibition at 1 µM [1] [%] | inhibition at 1 µM [2] [%] | inhibition at 1 µM [3] [%] | inhibition at 1 µM [4] [%] | inhibition at 1 µM [5] [%] | inhibition at 1 µM [6] [%] | inhibition at 0.1 µM ([1]; compound at 0.1 μM) [%] | inhibition at 0.1 µM [2] [%] | inhibition at 0.1 µM ([3]; compound at 0.1 μM) [%] | inhibition at 0.1 µM ([4]; compound at 0.1 μM) [%] | Inhibition of ligand binding, Serotonin 5-HT2C (percent inhibition of specific binding) ([1]; compound at 0.1 μM, 0.1 µM) [%] | Inhibition of ligand binding, Serotonin 5-HT2A (percent inhibition of specific binding) ([2]; compound at 0.1 μM, 0.1 µM) [%] | Inhibition of ligand binding, Serotonin 5-HT7 (percent inhibition of specific binding) ([3]; compound at 0.1 μM, 0.1 µM) [%] | Inhibition of ligand binding, Serotonin 5-HT6 (percent inhibition of specific binding) ([4]; compound at 0.1 μM, 0.1 µM) [%] | Inhibition of ligand binding, Dopamine D2L ([6]; 1 µM) [%] |
| --- | --- | --- | --- | --- | --- | --- | --- | --- | --- | --- | --- | --- | --- | --- | --- | --- |
| C/C(=C\n1c2c(c3cc(Cl)ccc31)CN(C)CC2)c1cccnc1 [Compound 86, (E)-8-chloro-2,3,4,5-tetrahydro-2-methyl-5-(2-(pyridin-3-yl)prop-1-enyl)-1H-pyrido[4,3-b]indole] | 72 | 94 | 95 | 93 | 77 | 54 | 40 | – | – | – | – | – | – | – | – | – |
| C/C(=C\n1c2c(c3cc(Cl)ccc31)CN(C)CC2)c1ccc(F)c(F)c1 [Compound 98, (E)-8-chloro-5-(2-(3,4-difluorophenyl)prop-1-enyl)-2,3,4,5-tetrahydro-2-methyl-1H-pyrido[4,3-b]indole] | 53 | 100 | 95 | 94 | 100 | 99 | 78 | – | – | – | – | – | – | – | – | – |
| CCc1ccc2c(c1)c1c(n2/C=C(\C)c2ccncc2)CCN(C)C1 [Compound 270, (E)-8-ethyl-2-methyl-5-(2-(pyridin-4-yl)prop-1-enyl)-2,3,4,5-tetrahydro-1H-pyrido[4,3-b]indole] | 19 | – | – | – | – | – | 88 | 84 | 92 | 79 | 97 | – | – | – | – | – |
| C/C(=C\n1c2c(c3cc(C(C)(C)C)ccc31)CN(C)CC2)c1ccncc1 [Compound 271, (E)-8-tert-butyl-2-methyl-5-(2-(pyridin-4-yl)prop-1-enyl)-2,3,4,5-tetrahydro-1H-pyrido[4,3-b]indole] | -16 | – | – | – | – | – | 63 | 19 | 41 | 10 | 90 | – | – | – | – | – |
| C/C(=C\n1c2c(c3cc(C)ccc31)CN(C(C)C)CC2)c1ccncc1 [Compound 272, (E)-2-isopropyl-8-methyl-5-(2-(pyridin-4-yl)prop-1-enyl)-2,3,4,5-tetrahydro-1H-pyrido[4,3-b]indole] | 48 | – | – | – | – | – | 85 | 40 | 62 | -1 | 98 | – | – | – | – | – |
| C/C(=C\n1c2c(c3cc(Cl)ccc31)CN(C)C(C)C2)c1ccc(C)nc1 (centres unmarked) [Compound 273, (E)-8-chloro-2,3-dimethyl-5-(2-(6-methylpyridin-3-yl)prop-1-enyl)-2,3,4,5-tetrahydro-1H-pyrido[4,3-b]indole] | 41 | – | – | – | – | – | 12 | 100 | 94 | 85 | 46 | – | – | – | – | – |
| C/C(=C\n1c2c(c3cc(Cl)ccc31)CN(C)C(C)C2)c1ccncc1 (centres unmarked) [Compound 275, (E)-8-chloro-2,3-dimethyl-5-(2-(pyridin-4-yl)prop-1-enyl)-2,3,4,5-tetrahydro-1H-pyrido[4,3-b]indole] | 39 | – | – | – | – | – | 92 | 98 | 93 | 72 | 101 | – | – | – | – | – |
| C/C(=C\n1c2c(c3cc(C)ccc31)CN(C)CC2)c1ccc(F)cc1F [Compound 276, (E)-5-(2-(2,4-difluorophenyl)prop-1-enyl)-2,8-dimethyl-2,3,4,5-tetrahydro-1H-pyrido[4,3-b]indole] | 63 | – | – | – | – | – | 82 | 96 | 99 | 86 | 81 | – | – | – | – | – |
| C/C(=C\n1c2c(c3cc(Cl)ccc31)CN(C)CC2)c1ccc(F)cc1F [Compound 277, (E)-8-chloro-5-(2-(2,4-difluorophenyl)prop-1-enyl)-2-methyl-2,3,4,5-tetrahydro-1H-pyrido[4,3-b]indole] | 95 | – | – | – | – | – | – | – | – | – | – | 98 | 100 | 103 | 98 | 98 |
| C/C(=C\n1c2c(c3cc(C)ccc31)CN(C)CC2)c1ccccn1 [Compound 278, (E)-2,8-dimethyl-5-(2-(pyridin-2-yl)prop-1-enyl)-2,3,4,5-tetrahydro-1H-pyrido[4,3-b]indole] | 24 | – | – | – | – | – | 51 | 91 | 88 | 79 | 69 | – | – | – | – | – |
| C/C(=C\n1c2c(c3cc(C)ccc31)CN(C)CC2)c1ccncn1 [Compound 279, (E)-2,8-dimethyl-5-(2-(pyrimidin-4-yl)prop-1-enyl)-2,3,4,5-tetrahydro-1H-pyrido[4,3-b]indole] | 21 | – | – | – | – | – | 69 | 70 | 75 | 53 | 90 | – | – | – | – | – |
| Cc1ccc2c(c1)c1c(n2/C=C(/c2ccncc2)C(C)(C)C)CCN(C)C1 [Compound 280, (E)-5-(3,3-dimethyl-2-(pyridin-4-yl)but-1-enyl)-2,8-dimethyl-2,3,4,5-tetrahydro-1H-pyrido[4,3-b]indole] | 12 | – | – | – | – | – | 52 | 86 | 83 | 20 | 56 | – | – | – | – | – |
| CC/C(=C/n1c2c(c3cc(C)ccc31)CN(C)CC2)c1ccncc1 [Compound 281, (Z)-2,8-dimethyl-5-(2-(pyridin-4-yl)but-1-enyl)-2,3,4,5-tetrahydro-1H-pyrido[4,3-b]indole] | 42 | – | – | – | – | – | 51 | 96 | 103 | 93 | 78 | – | – | – | – | – |
| CC/C(=C/n1c2c(c3cc(Cl)ccc31)CN(C)CC2)c1ccncc1 [Compound 282, (Z)-8-chloro-2-methyl-5-(2-(pyridin-4-yl)but-1-enyl)-2,3,4,5-tetrahydro-1H-pyrido[4,3-b]indole] | 31 | – | – | – | – | – | 57 | 94 | 100 | 91 | 102 | – | – | – | – | – |
